For assay [1], the target named is T1, functional uptake of serotonin (5-HT) into synaptosomes prepared from rat whole brain (Rattus norvegicus, UniProt P31652).
T1 construct: into synaptosomes prepared from rat whole brain, hypothalamus, or corpora striata, respectively; from tissue; host or cells: rat whole brain synaptosomes
The assay is described as follows: Functional uptake of serotonin (5-HT) into synaptosomes. In kind it is biochemical. As to conditions: for IC50: rat whole brain synaptosomes, 10 concentrations in duplicate; for inhibition at 10 µM: read-out: inhibition of 5-HT uptake (no IC50 determined). As to the method:
(§1) The 1-OH metabolites of N-didesmethylsibutramine (1-OH-DDMS) were tested to determine thir ability to functional uptake of serotonin (5-HT), norepinephrine (NE), or dopamine (DA), into synaptosomes prepared from rat whole brain, hypothalamus, or corpora striata, respectively. In addition, binding was determined at the nonselective muscarinic receptor and the β3-receptor from rat cerebral cortex and rat adipose tissue, respectively. The 1-OH-DDMS compounds tested contain two chiral centers (C2, C4): (2R,4R) (2S,4R), (2R,4S), and (2S,4S).
(§2) The 1-OH metabolites of N-desmethylsibutramine (DMS) were also tested to determine their ability to inhibit functional uptake of serotonin (5-HT), norepinephrine (NE), or dopamine (DA), into synaptosomes prepared from rat whole brain, hypothalamus, or corpora striata, respectively. In addition, binding was determined at the nonselective muscarinic receptor and the β3-receptor from rat cerebral cortex and rat adipose tissue, respectively. The 1-OH-DMS compounds tested contained two chiral centers (C2, C4): (2R,4R), (2S,4S), (2R,4S), and (2S,4R).

In assay [2] the target is T2, functional uptake of norepinephrine (NE) into synaptosomes prepared from rat hypothalamus (Rattus norvegicus, UniProt Q63380).
T2 construct: into synaptosomes prepared from rat whole brain, hypothalamus, or corpora striata, respectively; from tissue; host or cells: rat hypothalamus synaptosomes
T2 sequence (Q63380 1-617): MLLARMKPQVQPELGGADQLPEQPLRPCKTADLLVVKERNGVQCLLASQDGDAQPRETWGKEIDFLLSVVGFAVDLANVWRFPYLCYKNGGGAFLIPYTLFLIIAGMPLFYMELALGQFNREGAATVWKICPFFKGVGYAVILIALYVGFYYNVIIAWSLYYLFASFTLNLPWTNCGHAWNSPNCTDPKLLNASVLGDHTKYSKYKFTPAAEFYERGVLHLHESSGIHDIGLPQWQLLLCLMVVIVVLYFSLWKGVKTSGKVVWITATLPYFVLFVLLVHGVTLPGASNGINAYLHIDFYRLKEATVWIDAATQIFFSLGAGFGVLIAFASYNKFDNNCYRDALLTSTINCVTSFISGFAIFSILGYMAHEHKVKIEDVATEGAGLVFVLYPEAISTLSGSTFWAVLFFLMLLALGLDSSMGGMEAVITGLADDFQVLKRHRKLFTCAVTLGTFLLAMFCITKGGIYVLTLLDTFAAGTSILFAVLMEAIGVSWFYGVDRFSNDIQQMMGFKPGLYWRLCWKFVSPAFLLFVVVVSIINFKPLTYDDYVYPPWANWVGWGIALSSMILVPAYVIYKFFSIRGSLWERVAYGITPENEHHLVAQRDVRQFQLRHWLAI
Nature of the assay: Functional uptake of norepinephrine (NE) into synaptosomes. Format: biochemical. As to conditions: 10 concentrations in duplicate. As to the method: as §1, §2

Assay [3] has as its target T3, functional uptake of dopamine (DA) into synaptosomes prepared from rat corpora striata (Rattus norvegicus, UniProt P23977).
T3 construct: into synaptosomes prepared from rat whole brain, hypothalamus, or corpora striata, respectively; from tissue; host or cells: rat corpora striata synaptosomes
The assay is described as follows: Functional uptake of dopamine (DA) into synaptosomes. Format: biochemical. The settings on record: 10 concentrations in duplicate. Here is the method: as §1, §2

In assay [4] the target is T4, β3-receptor from rat adipose tissue (Rattus norvegicus, UniProt P26255).
T4 construct: from tissue; host or cells: rat adipose tissue
T4 sequence (P26255 whole entry): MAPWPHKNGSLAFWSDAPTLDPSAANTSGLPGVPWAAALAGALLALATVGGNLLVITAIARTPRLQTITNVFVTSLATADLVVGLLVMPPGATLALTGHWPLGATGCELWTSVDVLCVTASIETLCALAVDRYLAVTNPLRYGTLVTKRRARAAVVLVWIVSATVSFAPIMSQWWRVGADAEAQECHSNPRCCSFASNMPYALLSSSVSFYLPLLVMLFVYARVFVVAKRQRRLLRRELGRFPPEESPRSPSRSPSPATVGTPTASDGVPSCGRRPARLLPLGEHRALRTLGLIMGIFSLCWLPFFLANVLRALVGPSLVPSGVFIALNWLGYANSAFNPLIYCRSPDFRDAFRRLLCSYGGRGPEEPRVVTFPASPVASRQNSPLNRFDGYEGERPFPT
Nature of the assay: Binding at the β3-receptor. Here is the method:
Indeed, certain compounds have been tested. The 1-OH metabolites of N-didesmethylsibutramine (1-OH-DDMS) were tested to determine thir ability to functional uptake of serotonin (5-HT), norepinephrine (NE), or dopamine (DA), into synaptosomes prepared from rat whole brain, hypothalamus, or corpora striata, respectively. In addition, binding was determined at the nonselective muscarinic receptor and the β3-receptor from rat cerebral cortex and rat adipose tissue, respectively. The 1-OH-DDMS compounds tested contain two chiral centers (C2, C4): (2R,4R) (2S,4R), (2R,4S), and (2S,4S).
as §2

[5] abbreviates: read-out: IC50 Values (nM) for 1-OH Metabolites of DDMS in Functional Uptake Assays: 5-HT.
Setting [6] is: read-out: IC50 Values (nM) for 1-OH Metabolites of DDMS in Functional Uptake Assays: NE.
Where [7] appears, read: read-out: IC50 Values (nM) for 1-OH Metabolites of DDMS in Functional Uptake Assays: DA.
Where [8] appears, read: read-out: IC50 Values (nM) for 1-OH Metabolites of DMS in Functional Uptake Assays: 5-HT.
The mark [9] stands for this setting: read-out: IC50 Values (nM) for 1-OH Metabolites of DMS in Functional Uptake Assays: NE.
[10] abbreviates: read-out: IC50 Values (nM) for 1-OH Metabolites of DMS in Functional Uptake Assays: DA.

Each structure is given as a SMILES string. Like-named read-outs stand apart in the source and are kept apart here. Some results are limits rather than exact numbers.

T1 sequence (P31652 whole entry): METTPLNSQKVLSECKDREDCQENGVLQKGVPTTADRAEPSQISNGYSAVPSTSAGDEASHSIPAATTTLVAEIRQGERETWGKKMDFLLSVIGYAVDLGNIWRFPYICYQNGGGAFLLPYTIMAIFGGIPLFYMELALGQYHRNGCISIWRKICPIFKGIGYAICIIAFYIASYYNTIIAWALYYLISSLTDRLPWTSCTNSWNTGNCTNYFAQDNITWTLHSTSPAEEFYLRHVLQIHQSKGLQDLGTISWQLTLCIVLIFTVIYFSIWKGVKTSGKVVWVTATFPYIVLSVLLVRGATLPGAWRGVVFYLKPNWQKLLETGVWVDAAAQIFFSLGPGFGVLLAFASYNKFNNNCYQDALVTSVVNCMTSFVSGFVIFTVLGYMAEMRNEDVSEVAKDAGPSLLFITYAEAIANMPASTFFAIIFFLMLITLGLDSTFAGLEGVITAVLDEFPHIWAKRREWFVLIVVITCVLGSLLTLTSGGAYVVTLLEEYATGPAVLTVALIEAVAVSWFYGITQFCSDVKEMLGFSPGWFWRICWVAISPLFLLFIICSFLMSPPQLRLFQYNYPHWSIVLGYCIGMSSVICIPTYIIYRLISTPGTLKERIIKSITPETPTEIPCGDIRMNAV
T3 sequence (P23977 whole entry): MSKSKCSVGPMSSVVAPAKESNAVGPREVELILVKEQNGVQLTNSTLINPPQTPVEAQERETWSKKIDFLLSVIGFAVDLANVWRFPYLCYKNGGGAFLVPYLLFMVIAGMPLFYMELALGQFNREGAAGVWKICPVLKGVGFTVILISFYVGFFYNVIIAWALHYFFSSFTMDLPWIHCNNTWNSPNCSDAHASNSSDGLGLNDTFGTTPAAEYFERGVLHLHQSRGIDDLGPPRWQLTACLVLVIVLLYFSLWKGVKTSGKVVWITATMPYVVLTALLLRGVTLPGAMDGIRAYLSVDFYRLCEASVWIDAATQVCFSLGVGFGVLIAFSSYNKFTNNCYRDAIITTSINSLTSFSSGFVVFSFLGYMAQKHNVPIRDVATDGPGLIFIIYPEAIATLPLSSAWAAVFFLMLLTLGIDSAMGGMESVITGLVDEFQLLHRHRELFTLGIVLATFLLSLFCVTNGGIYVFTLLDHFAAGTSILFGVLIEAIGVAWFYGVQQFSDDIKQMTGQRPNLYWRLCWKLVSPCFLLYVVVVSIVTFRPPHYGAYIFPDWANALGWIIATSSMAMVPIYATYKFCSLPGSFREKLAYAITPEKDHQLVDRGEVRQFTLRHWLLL

With `C[C@@H](CO)C[C@@H](N)C1(c2ccc(Cl)cc2)CCC1` [(2R,4R)-1-OH-DDMS, (2R, 4R)-4-Amino-4-[1-(4-chlorophenyl)cyclobutyl]-2-methyl-butan-1-ol], the IC50 in assay [1] (setting [5]) worked out at 34 nM; in assay [2] (setting [6]) it was 4.7 nM; in assay [3] (setting [7]), 27 nM.
Consider `CN[C@H](C[C@@H](C)CO)C1(c2ccc(Cl)cc2)CCC1` [(2R,4R)-1-OH-DMS], for which the concentration for half-maximal inhibition (IC50) turned out to be 12 nM in assay [1] (setting [8]), 2.2 nM in assay [2] (setting [9]) and 19 nM in assay [3] (setting [10]).
Consider `C[C@@H](CO)C[C@H](N)C1(c2ccc(Cl)cc2)CCC1` [(2R,4S)-1-OH-DDMS, (2R, 4S)-4-Amino-4-[1-(4-chlorophenyl)cyclobutyl]-2-methyl-butan-1-ol], for which the figures for the 50% inhibitory concentration (IC50) in assay [1] (setting [5]), in assay [2] (setting [6]) and in assay [3] (setting [7]) were 2000 nM, 71 nM and 110 nM, respectively.
As for `CN[C@@H](C[C@@H](C)CO)C1(c2ccc(Cl)cc2)CCC1` [(2R,4S)-1-OH-DMS, (2R, 4S)-4-Methylamino-4-[1-(4-chlorophenyl)cyclobutyl]-2-methyl-butan-1-ol], the inhibition at 10 µM in assay [1] is below 50%. Further, the IC50 in assay [2] (setting [9]) worked out at 74 nM; in assay [3] (setting [10]), 2500 nM.
For `C[C@H](CO)C[C@@H](N)C1(c2ccc(Cl)cc2)CCC1` [(2S,4R)-1-OH-DDMS, (2S,4R)-4-Amino-4-[1-(4-chlorophenyl)cyclobutyl]-2-methyl-butan-1-ol], the IC50 in assay [1] (setting [5]) stood at 65 nM; in assay [2] (setting [6]), 11 nM; in assay [3] (setting [7]) it was 37 nM.
Regarding `CN[C@H](C[C@H](C)CO)C1(c2ccc(Cl)cc2)CCC1` [(2S,4R)-1-OH-DMS, (2S, 4R)-4-Methylamino-4-[1-(4-chlorophenyl)cyclobutyl]-2-methyl-butan-1-ol], the IC50 worked out at 160 nM in assay [1] (setting [8]), 9.3 nM in assay [2] (setting [9]) and 37 nM in assay [3] (setting [10]). For the same compound, the inhibition at 10 µM in assay [4] (read-out: inhibition at the β3-receptor (1-OH-DMS compounds)) was determined as 24%.
For `C[C@H](CO)C[C@H](N)C1(c2ccc(Cl)cc2)CCC1` [(2S,4S)-1-OH-DDMS, (2S, 4S)-4-Amino-4-[1-(4-chlorophenyl)cyclobutyl]-2-methyl-butan-1-ol], the IC50 in assay [1] (setting [5]) amounted to 1200 nM; in assay [2] (setting [6]) it was 150 nM; in assay [3] (setting [7]), 33 nM. The inhibition at 10 µM in assay [4] (read-out: inhibition at the β3-receptor (1-OH-DDMS compounds)) was determined as 30%.
Turning to `CN[C@@H](C[C@H](C)CO)C1(c2ccc(Cl)cc2)CCC1` [(2S,4S)-1-OH-DMS, (2S, 4S)-4-Methylamino-4-[1-(4-chlorophenyl)cyclobutyl]-2-methyl-butan-1-ol], the inhibition at 10 µM in assay [1] was below 50%. The IC50 in assay [2] (setting [9]) was determined as 250 nM; in assay [3] (setting [10]) it was 430 nM.

For the origin of these results see patent publication US20020115727A1, “Synthesis, methods of using, and compositions of hydroxylated cyclobutylalkylamines” (priority 2000, published 2002).
